Source: ChEMBL document CHEMBL1135450, “Discovery of phenyl alanine derived ketoamides carrying benzoyl residues as novel calpain inhibitors” (Bioorg Med Chem Lett, 2002)
Where a SMILES comes first, the peptide text is derived from it. [ ]: non-standard residue; d: D form. The star is where a group is joined. ξ: configuration not given here. ξF = NC(Cc1ccccc1)C(=O)O; Cbz = O=C(OCc1ccccc1)*

Target: Cathepsin B (Homo sapiens, UniProt P07858)
Experiment: Inhibition of cathepsin B

Ki [nM] | SMILES
99 | NC(=O)C(=O)C(Cc1ccccc1)NC(=O)c1ccccc1/C=C/c1ccc2ccccc2c1 (stereo not given)

Target: Procathepsin L (Homo sapiens, UniProt P07711)
Sequence (P07711 whole entry): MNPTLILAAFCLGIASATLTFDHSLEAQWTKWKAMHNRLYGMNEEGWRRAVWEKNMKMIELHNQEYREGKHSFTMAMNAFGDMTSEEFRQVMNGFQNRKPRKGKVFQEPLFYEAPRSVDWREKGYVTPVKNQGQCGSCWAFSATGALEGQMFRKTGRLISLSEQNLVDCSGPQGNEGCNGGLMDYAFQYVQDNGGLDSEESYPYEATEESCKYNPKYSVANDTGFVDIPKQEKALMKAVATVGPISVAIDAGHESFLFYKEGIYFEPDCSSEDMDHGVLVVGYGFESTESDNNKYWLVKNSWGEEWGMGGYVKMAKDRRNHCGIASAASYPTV
Experiment: The compound was evaluated for inhibition of cathepsin L

Ki [nM] | SMILES
6100 | NC(=O)C(=O)C(Cc1ccccc1)NC(=O)c1ccccc1/C=C/c1ccc2ccccc2c1 (stereo not given)

Target: T1, Calpain-1 catalytic subunit (Homo sapiens, UniProt P07384)
T1 sequence (P07384 whole entry): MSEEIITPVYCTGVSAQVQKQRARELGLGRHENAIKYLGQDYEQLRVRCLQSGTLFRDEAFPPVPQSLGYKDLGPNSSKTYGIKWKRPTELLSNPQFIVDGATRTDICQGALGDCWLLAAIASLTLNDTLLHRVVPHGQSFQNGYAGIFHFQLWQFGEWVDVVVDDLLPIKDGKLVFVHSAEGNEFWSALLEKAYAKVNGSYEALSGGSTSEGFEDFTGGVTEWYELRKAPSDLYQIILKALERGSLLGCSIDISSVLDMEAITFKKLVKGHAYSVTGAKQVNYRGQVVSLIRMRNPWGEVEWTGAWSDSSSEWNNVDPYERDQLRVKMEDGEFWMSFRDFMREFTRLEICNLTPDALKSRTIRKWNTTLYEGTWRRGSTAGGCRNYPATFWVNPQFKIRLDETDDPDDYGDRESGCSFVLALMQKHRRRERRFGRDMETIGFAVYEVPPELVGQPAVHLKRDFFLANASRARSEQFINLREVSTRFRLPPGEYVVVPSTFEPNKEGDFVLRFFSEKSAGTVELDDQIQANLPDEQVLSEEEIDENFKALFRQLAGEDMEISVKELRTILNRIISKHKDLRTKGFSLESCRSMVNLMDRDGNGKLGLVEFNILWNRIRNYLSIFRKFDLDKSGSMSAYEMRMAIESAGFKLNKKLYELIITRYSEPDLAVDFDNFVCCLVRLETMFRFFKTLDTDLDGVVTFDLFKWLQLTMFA
Experiment: Inhibition of calpain, using human mu-calpain isolated from erythrocytes and Suc-Leu-Tyr-AMC as the fluorogenic substrate
Assay type: cell-free

Ki [nM] | SMILES
80 | COc1ccc(/C=C/c2ccccc2C(=O)NC(Cc2ccccc2)C(=O)C(N)=O)cc1OC (stereo not given)
40 | NC(=O)C(=O)C(Cc1ccccc1)NC(=O)c1ccccc1-c1ccccc1 (stereo not given)
450 | O=CC(Cc1ccccc1)NC(=O)c1ccccc1COc1ccccc1 (stereo not given)
50 | O=CC(Cc1ccccc1)NC(=O)c1ccccc1OCc1ccc2ccccc2c1 (stereo not given)
40 | COc1ccc(/C=C/c2ccccc2C(=O)NC(C=O)Cc2ccccc2)cc1OC (stereo not given)
200 | O=CC(Cc1ccccc1)NC(=O)c1ccccc1Cc1ccc2ccccc2c1 (stereo not given)
140 | O=CC(Cc1ccccc1)NC(=O)c1ccccc1/C=C/c1ccccc1 (stereo not given)
280 | O=CC(Cc1ccccc1)NC(=O)c1ccccc1CCc1ccccc1 (stereo not given)
90 | O=CC(Cc1ccccc1)NC(=O)c1ccccc1-c1ccccc1 (stereo not given)
6 | NC(=O)C(=O)C(Cc1ccccc1)NC(=O)c1ccccc1/C=C/c1ccc2ccccc2c1 (stereo not given)
230 | O=CC(Cc1ccccc1)NC(=O)c1ccccc1C(=O)c1ccccc1 (stereo not given)
370 | O=CC(Cc1ccccc1)NC(=O)c1ccccc1Cc1ccccc1 (stereo not given)
15 | O=CC(Cc1ccccc1)NC(=O)c1ccccc1/C=C/c1ccc2ccccc2c1 (stereo not given)
1080 | O=CC(Cc1ccccc1)NC(=O)c1ccccc1 (stereo not given)
450 | O=CC(Cc1ccccc1)NC(=O)c1ccccc1C#Cc1ccccc1 (stereo not given)
50 | O=CC(Cc1ccccc1)NC(=O)c1ccccc1Oc1ccccc1 (stereo not given)

Test system: not listed separately
Experiment: Inhibition of calpain-mediated p60 c-Src degradation in human thrombocytes
Assay type: functional, cell-based

IC50 [nM] | SMILES
1400 | NC(=O)C(=O)C(Cc1ccccc1)NC(=O)c1ccccc1/C=C/c1ccc2ccccc2c1 (stereo not given)
700 | CC(C)[C@H](NC(=O)OCc1ccccc1)C(=O)NC(C=O)Cc1ccccc1 (stereo partly drawn) (Cbz-Val-[ξF]-aldehyde)
